Experimental data taken from patent publication US6610846B1, “Heteroaromatic glucokinase activators” (Hoffman-La Roche Inc., priority 1999, dated 2003).

SMILES | melting point
O=C(Nc1nccs1)C(CC1CCCC1)c1cccc(S(=O)(=O)C(F)(F)F)c1 (centres unmarked) [Example 69, 3-Cyclopentyl-N-thiazol-2-yl-2-(3-trifluoromethanesulfonyl-phenyl)-propionamide] | 61 to 64 °C
O=C(Nc1nccs1)C(CC1CCCC1)c1ccc(C(F)(F)F)c(F)c1 (centres unmarked) [Example 70, 3-Cyclopentyl-2-(3-fluoro-4-trifluoromethyl-phenyl)-N-thiazol-2-yl-propionamide] | 194 to 195 °C
CS(=O)(=O)c1ccc(C(CC2CCCC2)C(=O)Nc2ccc(Br)cn2)cc1Br (centres unmarked) [Example 74, 2-(3-Bromo-4-methanesulfonyl-phenyl)-N-(5-bromo-pyridin-2-yl)-3-cyclopentyl-propionamide] | 83 to 86 °C
CCS(=O)(=O)c1ccc(C(CC2CCCC2)C(=O)Nc2ccccn2)cc1 (centres unmarked) [Example 78, 3-Cyclopentyl-2-(4-ethanesulfonyl-phenyl)-N-pyridin-2-yl-propionamide] | 144 to 145 °C
CS(=O)(=O)c1ccc(C(CC2CCCC2)C(=O)Nc2nccs2)cc1S(C)(=O)=O (centres unmarked) [Example 79, 2-(3,4-Bis-methanesulfonyl-phenyl)-3-cyclopentyl-N-thiazol-2-yl-propionamide] | 104 to 107 °C
O=C(Nc1nccnn1)C(CC1CCCC1)c1ccc(Cl)c(Cl)c1 (centres unmarked) [Example 81, 3-Cyclopentyl-2-(3,4-dichlorophenyl)-N-[1,2,4]triazin-3-yl-propionamide] | 81 to 83 °C
NS(=O)(=O)c1ccc(C(CC2CCCC2)C(=O)Nc2nccs2)cc1 (centres unmarked) [Example 82, 3-Cyclopentyl-2-(4-sulfamoyl-phenyl)-N-thiazol-2-yl-propionamide] | 179 to 181 °C
O=C(Nc1nncs1)C(CC1CCCC1)c1ccc(Cl)c(Cl)c1 (centres unmarked) [Example 83, 3-Cyclopentyl-2-(3,4-dichlorophenyl)-N-[1,3,4]thiadiazol-2-yl-propionamide] | 90 to 91 °C
N#Cc1ccc(C(CC2CCCC2)C(=O)Nc2nccs2)cc1 (centres unmarked) [Example 84(A), 2-(4-Cyano-phenyl)-3-cyclopentyl-N-thiazol-2-yl-propionamide] | 64 to 66 °C
CCCCS(=O)(=O)c1ccc(C(CC2CCCC2)C(=O)Nc2nccs2)cc1 (centres unmarked) [Example 86(A), 2-[4-(Butane-1-sulfonyl)-phenyl]-3-cyclopentyl-N-thiazol-2-yl-propionamide] | 163 to 165 °C
O=C(Nc1nccs1)C(CC1CCCC1)c1ccc(F)c(C(F)(F)F)c1 (centres unmarked) [Example 87(A), 3-Cyclopentyl-2-(4-fluoro-3-trifluoromethyl-phenyl)-N-thiazol-2-yl-propionamide] | 125 to 127 °C
O=C(Nc1nccs1)C(CC1CCCC1)c1cccc(C(F)(F)F)c1 (centres unmarked) [Example 88, 3-Cyclopentyl-N-thiazol-2-yl-2-(3-trifluoromethyl-phenyl)-propionamide] | 134 to 136 °C
CS(=O)(=O)c1ccc(C(CC2CCCC2)C(=O)Nc2ccccn2)cc1C(F)(F)F (centres unmarked) [Example 90, 3-Cyclopentyl-2-(4-methanesulfonyl-3-trifluoromethyl-phenyl)-N-pyridin-2-yl-propionamide] | 86 to 89 °C
O=C(Nc1ccc(C(F)(F)F)cn1)[C@H](CC1CCCC1)c1ccc(Cl)c(Cl)c1 [Example 101, 3-Cyclopentyl-2(R)-(3,4-dichloro-phenyl)-N-(5-trifluoromethyl-pyridin-2-yl)-propionamide] | 113.8 to 117.5 °C
CNC(=O)c1ccc(NC(=O)C(CC2CCCC2)c2ccc(Cl)c(Cl)c2)nc1 (centres unmarked) [Example 103, 6-[3-Cyclopentyl-2-(3,4-dichloro-phenyl)-propionylamino]-N-methyl-nicotinamide] | 229.1 to 231.7 °C
O=C(Nc1cnccn1)C(CC1CCCC1)c1ccc(Cl)c(Cl)c1 (centres unmarked) [Example 104, 3-Cyclopentyl-2-(3,4-dichloro-phenyl)-N-pyrazin-2-yl-propionamide] | 46.5 to 51.3 °C
O=C(Nc1ccc(Br)cn1)[C@H](CC1CCCC1)c1ccc(Cl)c(Cl)c1 [Example 105, N-(5-Bromo-pyridin-2-yl)-3-cyclopentyl-2(R)-(3,4-dichloro-phenyl)-propionamide] | 107.3 to 109.9 °C
O=C(Nc1nccs1)C(CC1CCCC1)c1cccc([N+](=O)[O-])c1 (centres unmarked) [Example 109, 3-Cyclopentyl-2-(3-nitrophenyl)-N-thiazol-2-yl-propionamide] | 171 to 174 °C
COc1cccc(C(CC2CCCC2)C(=O)Nc2nccs2)c1 (centres unmarked) [Example 110, 3-Cyclopentyl-2-(3-methoxy-phenyl)-N-thiazol-2-yl-propionamide] | 44 to 45 °C
O=C(Nc1nccs1)C(CC1CCCC1)c1cccc(O)c1 (centres unmarked) [Example 111, 3-Cyclopentyl-2-(3-hydroxy-phenyl)-N-thiazol-2-yl-propionamide] | 177 to 179 °C
COc1ccc(C(CC2CCCC2)C(=O)Nc2nccs2)cc1OC (centres unmarked) [Example 113, 3-Cyclopentyl-2-(3,4-dimethoxy-phenyl)-N-thiazol-2-yl-propionamide] | 50 to 52 °C

SMILES | melting point
O=C(Nc1nccs1)C(CC1CCCC1)c1ccc(O)c(O)c1 (centres unmarked) [Example 114, 3-Cyclopentyl-2-(3,4-dihydroxy-phenyl)-N-thiazol-2-yl-propionamide] | 170 to 173 °C
COc1ccc(C(CC2CCCC2)C(=O)Nc2nccs2)cc1 (centres unmarked) [Example 115, 3-Cyclopentyl-2-(4-methoxy-phenyl)-N-thiazol-2-yl-propionamide] | 166 to 167 °C
O=C(Nc1nccs1)C(CC1CCCC1)c1ccc(O)cc1 (centres unmarked) [Example 116, 3-Cyclopentyl-2-(4-hydroxy-phenyl)-N-thiazol-2-yl-propionamide] | 198 to 200 °C
COC(=O)c1ccc(C(CC2CCCC2)C(=O)Nc2nccs2)cc1 (centres unmarked) [Example 117, 4-[2-Cyclopentyl-1-(thiazol-2-ylcarbamoyl)-ethyl]-benzoic acid methyl ester] | 54 to 56 °C
COc1ccc(C(CC2CCCC2)C(=O)Nc2nccs2)cc1F (centres unmarked) [Example 118, 3-Cyclopentyl-2-(3-fluoro-4-methoxy-phenyl)-N-thiazol-2-yl-propionamide] | 51 to 53 °C
O=C(Nc1nccs1)C(CC1CCCC1)c1ccc(O)c(F)c1 (centres unmarked) [Example 119, 3-Cyclopentyl-2-(3-fluoro-4-hydroxy-phenyl)-N-thiazol-2-yl-propionamide] | 199 to 201 °C
O=C(O)c1ccc(NC(=O)C(CC2CCCC2)c2cccc(Cl)c2)nc1 (centres unmarked) [Example 120, 6-[2-(3-Chloro-phenyl)-3-cyclopentyl-propionylamino]-nicotinic acid] | 251 to 255 °C
CSc1ccc([C@@H](CC2CCCC2)C(=O)Nc2cnccn2)cc1 [Example 126, 3-Cyclopentyl-2(R)-(4-methylsulfanyl-phenyl)-N-pyrazin-2-yl-propionamide] | 128 to 130 °C
CS(=O)(=O)c1ccc([C@@H](CC2CCCC2)C(=O)Nc2cnccn2)cc1 [Example 127, 3-Cyclopentyl-2(R)-(4-methylsulfonyl-phenyl)-N-pyrazin-2-yl-propionamide] | 75 to 80 °C
CS(=O)(=O)c1ccc(C(CC2CCCC2)C(=O)Nc2ncc(Br)s2)cc1 (centres unmarked) [Example 132, N-(5-Bromo-thiazol-2-yl)-3-cyclopentyl-2-(4-methanesulfonyl-phenyl)-propionamide] | 73 to 75 °C
CS(=O)(=O)c1ccc(C(CC2CCCC2)C(=O)Nc2ncc(C(N)=O)s2)cc1 (centres unmarked) [Example 134, 2-[3-Cyclopentyl-2-(4-methanesulfonyl-phenyl)-propionylamino]-thiazole-5-carboxylic acid amide] | 155 to 160 °C
CS(=O)(=O)c1ccc(C(CC2CCCC2)C(=O)Nc2ccccn2)cc1F (centres unmarked) [Example 136, 3-Cyclopentyl-2-(3-fluoro-4-methanesulfonyl-phenyl)-N-pyridin-2-yl-propionamide] | 76 to 79 °C
CS(=O)(=O)c1ccc([C@@H](CC2CCCC2)C(=O)Nc2cc[nH]c(=O)n2)cc1Cl [Example 145, 2(R)-(3-Chloro-4-methanesulfonyl-phenyl)-3-cyclopentyl-N-(2-oxo-1,2-dihydro-pyrimidin-4-yl)-propionamide] | > 200 °C
CS(=O)(=O)c1ccc(C(CC2CCCC2)C(=O)Nc2ccncn2)cc1Br (centres unmarked) [Example 148(A), 2-(3-Bromo-4-methanesulfonyl-phenyl)-3-cyclopentyl-N-pyrimidin-4-yl-propionamide] | 75 to 80 °C
CS(=O)(=O)c1ccc(C(CC2CCCC2)C(=O)Nc2ncc[nH]2)cc1Br (centres unmarked) [Example 150, 2-(3-Bromo-4-methanesulfonyl-phenyl)-3-cyclopentyl-N-(1 H-imidazol-2-yl)-propionamide] | > 210 °C (dec.)
CS(=O)(=O)c1ccc(C(CC2CCCC2)C(=O)Nc2ccncn2)cc1C#N (centres unmarked) [Example 151, 2-(3-Cyano-4-methanesulfonyl-phenyl)-3-cyclopentyl-N-pyrimidin-4-yl-propionamide] | 79 to 84 °C
Cc1nccc(NC(=O)C(CC2CCCC2)c2ccc(S(C)(=O)=O)c(C#N)c2)n1 (centres unmarked) [Example 152, 2-(3-Cyano-4-methanesulfonyl-phenyl)-3-cyclopentyl-N-(2-methyl-pyrimidin-4-yl)-propionamide] | 89 to 94 °C
CS(=O)(=O)c1ccc(C(CC2CCCC2)C(=O)Nc2cnccn2)cc1C#N (centres unmarked) [Example 153, 2-(3-Cyano-4-methanesulfonyl-phenyl)-3-cyclopentyl-N-pyrazin-2-yl-propionamide] | 88 to 93 °C
CSc1ccc(C(CC2CCCC2)C(=O)Nc2ccc([N+](=O)[O-])cn2)cc1C(F)(F)F (centres unmarked) [Example 154(A), 3-Cyclopentyl-2-(4-methylsulfanyl-3-trifluoromethyl-phenyl)-N-(5-nitro-pyridin-2-yl)-propionamide] | 109 to 110 °C
CS(=O)(=O)c1ccc(C(CC2CCCC2)C(=O)Nc2ccnc(=O)[nH]2)cc1C(F)(F)F (centres unmarked) [Example 155(A), 3-Cyclopentyl-2-(4-methanesulfonyl-3-trifluoromethyl-phenyl)-N-(2-oxo-2,3-dihydro-pyrimidin-4-yl)-propionamide] | 236 to 238 °C
